In the supplement of paper PMC10307832:

Key:
Experiment in all cases: relative viability (nuclei count vs DMSO), 5 days (fraction); higher = more cells survive
[1] = compound: COc1cc2ncn(-c3cc(OCc4ccccc4C(F)(F)F)c(C(N)=O)s3)c2cc1OC + COc1cc2c(Oc3ccc(NC(=O)C4(C(=O)Nc5ccc(F)cc5)CC4)cc3F)ccnc2cc1OCCCN1CCOCC1 [Foretinib] (partner 0.25 µM)
Summary of the method: (§1)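 Lung cancer cell lines were pin-tool dosed in 1536-well plates on the day after seeding, with either a lone drug or a fixed anchor-drug dose plus five library-drug doses (not always all listed) in √10 steps. Nuclei were counted on 4× images after 5 days. Relative viability is the ratio of treated-well to vehicle-well nuclei counts, with each value a median of duplicate plates.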

[2] = compound: COc1cc2ncn(-c3cc(OCc4ccccc4C(F)(F)F)c(C(N)=O)s3)c2cc1OC + COc1cccc2cc(-c3nc([C@H]4CC[C@H](C(=O)O)CC4)n4ncnc(N)c34)[nH]c12 [OSI-027] (partner 0.5 µM)
Summary of the method: as §1

[3] = compound: COc1cc2ncn(-c3cc(OCc4ccccc4C(F)(F)F)c(C(N)=O)s3)c2cc1OC + NC(=O)Nc1cc(-c2cccc(F)c2)sc1C(=O)N[C@H]1CCCNC1 [AZD7762] (partner 0.2 µM)
Summary of the method: as §1

[4] = compound: COc1cc2ncn(-c3cc(OCc4ccccc4C(F)(F)F)c(C(N)=O)s3)c2cc1OC + Nc1nc2[nH]cc(CCc3ccc(C(=O)N[C@@H](CCC(=O)O)C(=O)O)cc3)c2c(=O)[nH]1 [Pemetrexed] (partner 0.2 µM)
Summary of the method: as §1

| Cell Line | relative viability ([1]; first compound 0.05 µM) | relative viability ([1]; first compound 0.1581 µM) | relative viability ([1]; first compound 0.5 µM) | relative viability ([1]; first compound 1.581 µM) | relative viability ([1]; first compound 5 µM) | relative viability ([2]; first compound 0.05 µM) | relative viability ([2]; first compound 0.1581 µM) | relative viability ([2]; first compound 0.5 µM) | relative viability ([2]; first compound 1.581 µM) | relative viability ([2]; first compound 5 µM) | relative viability ([3]; first compound 0.05 µM) | relative viability ([3]; first compound 0.1581 µM) | relative viability ([3]; first compound 0.5 µM) | relative viability ([3]; first compound 1.581 µM) | relative viability ([3]; first compound 5 µM) | relative viability ([4]; first compound 0.05 µM) | relative viability ([4]; first compound 0.1581 µM) | relative viability ([4]; first compound 0.5 µM) | relative viability ([4]; first compound 1.581 µM) | relative viability ([4]; first compound 5 µM) |
| --- | --- | --- | --- | --- | --- | --- | --- | --- | --- | --- | --- | --- | --- | --- | --- | --- | --- | --- | --- | --- |
| NCI-H2405 | 0.998 | 0.817 | 0.531 | 0.359 | 0.361 | 0.647 | 0.613 | 0.384 | 0.357 | 0.268 | 0.793 | 0.703 | 0.446 | 0.262 | 0.263 | 1.12 | 1.01 | 0.399 | 0.377 | 0.367 |
| HCC-15 | 0.98 | 0.919 | 0.334 | 0.16 | 0.124 | 0.713 | 0.635 | 0.269 | 0.127 | 0.104 | 1.18 | 1.05 | 1.03 | 0.21 | 0.154 | 0.23 | 0.215 | 0.174 | 0.156 | 0.13 |
| RERF-LC-KJ | 0.957 | 0.901 | 0.791 | – | 0.625 | 0.534 | 0.494 | 0.226 | 0.205 | 0.253 | 1.01 | 1.59 | 0.849 | 0.761 | 0.814 | 0.472 | 0.487 | 0.439 | 0.299 | 0.346 |
| NCI-H1944 | 0.804 | 1.03 | 0.743 | 0.221 | 0.131 | 0.589 | 0.396 | 0.254 | 0.14 | 0.112 | 0.546 | 0.545 | 0.426 | 0.168 | 0.0968 | 0.666 | 0.635 | 0.536 | 0.178 | 0.0832 |
| HARA | 1.03 | 0.886 | 0.734 | 0.11 | 0.0673 | 0.445 | 0.504 | 0.244 | 0.0613 | 0.0396 | 0.301 | – | 0.201 | 0.173 | 0.112 | 0.242 | – | 0.24 | 0.176 | 0.126 |
| NCI-H2126 | 1.21 | 1.26 | 0.672 | 0.365 | 0.318 | 0.715 | 0.771 | 0.604 | 0.289 | 0.22 | 1.05 | 1.03 | 0.881 | 0.446 | 0.258 | 0.75 | 0.655 | 0.498 | 0.288 | 0.251 |
| LXF-289 | 0.92 | 0.858 | 0.483 | 0.158 | 0.0736 | 0.815 | 0.755 | 0.214 | 0.0606 | 0.0476 | 1.1 | 1 | 0.983 | 0.134 | 0.0617 | 0.897 | 0.674 | 0.597 | 0.184 | 0.0849 |
| NCI-H460 | 1.07 | 0.938 | 0.499 | 0.028 | 0.0214 | 0.625 | 0.616 | 0.227 | 0.0107 | 0.0118 | 0.63 | 0.654 | 0.554 | 0.0553 | 0.0434 | 0.0574 | 0.0651 | 0.0638 | 0.0225 | 0.0159 |
| NCI-H1395 | 0.932 | 1.01 | 0.686 | 0.448 | 0.556 | 0.63 | 0.675 | 0.547 | 0.354 | 0.323 | 0.454 | 0.396 | 0.377 | 0.323 | 0.316 | 0.761 | 0.828 | 0.663 | 0.395 | 0.27 |
| NCI-H2170 | 0.942 | 0.985 | 0.468 | 0.269 | 0.202 | 0.703 | 0.667 | 0.365 | 0.173 | 0.183 | 0.889 | 0.765 | 0.306 | 0.146 | 0.166 | 0.251 | 0.268 | 0.26 | 0.184 | 0.162 |
